This note sets out measurements from patent US20260184710A1, “CASITAS B-LINEAGE LYMPHOMA PROTOONCOGENE B (CBL-B) DEGRADING COMPOUNDS AND ASSOCIATED METHODS OF USE” (Arvinas Operations, Inc., priority 2022, published 2026).

Each structure is given as a SMILES string. A value given as a limit tells only on which side of the number the result lay.

In experiment [1] the target is T1, Cbl-b (Homo sapiens, UniProt Q13191).
T1 construct: Cbl-b-HiBit KI Jurkat Cells were purchased from Promega; host or cells: Cbl-b-HiBiT knock-in Jurkat cells
The experiment is described as follows: Cbl-b Degradation Method A (FACS, anti-Cbl-b antibody staining). The experiment is classed as cell-based. The note with it: Cbl-b-HiBit KI Jurkat Cells, incubated at least 20 hours; for DC50: half maximal degradation, read-out: Cbl-b Degredation Method A IC50; for Dmax: Jurkat, maximum degradation observed, read-out: Cbl-b Degredation Method A Dmax (%). The method, boiled down:
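Readout is flow cytometry of fixed, permeabilized cells immunostained for Cbl-b (primary 1:200, AF488 secondary). Cells were Cbl-b-HiBit knock-in Jurkat, exposed to compound ≥20 h at 37 °C; half-maximal degradation concentration (DC50) and maximal degradation (Dmax) calculated relative to control.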
On the technique in general: With HiBiT, luminescence reflects the tagged protein that the partner subunit can reach.

Experiment [2] addresses T1, Cbl-b. As to the kind of experiment: Cbl-b Degradation Method B (Nano-Glo HiBiT lytic detection). The note with it: Cbl-b-HiBit KI Jurkat Cells, incubated at least 6-24 hours; for DC50: half maximal degradation, read-out: Cbl-b Degredation Method B IC50. The experiment is classed as cell-based. The method, boiled down:
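An 11-point, 3-fold compound dilution was applied for 6-24 hours to Jurkat cells carrying HiBiT-tagged endogenous Cbl-b. Lytic HiBiT luminescence quantified residual protein. Outputs are DC50 and Dmax relative to DMSO control.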

A word on the Dmax: it is the greatest extent of degradation seen.

T1 sequence (Q13191 whole entry): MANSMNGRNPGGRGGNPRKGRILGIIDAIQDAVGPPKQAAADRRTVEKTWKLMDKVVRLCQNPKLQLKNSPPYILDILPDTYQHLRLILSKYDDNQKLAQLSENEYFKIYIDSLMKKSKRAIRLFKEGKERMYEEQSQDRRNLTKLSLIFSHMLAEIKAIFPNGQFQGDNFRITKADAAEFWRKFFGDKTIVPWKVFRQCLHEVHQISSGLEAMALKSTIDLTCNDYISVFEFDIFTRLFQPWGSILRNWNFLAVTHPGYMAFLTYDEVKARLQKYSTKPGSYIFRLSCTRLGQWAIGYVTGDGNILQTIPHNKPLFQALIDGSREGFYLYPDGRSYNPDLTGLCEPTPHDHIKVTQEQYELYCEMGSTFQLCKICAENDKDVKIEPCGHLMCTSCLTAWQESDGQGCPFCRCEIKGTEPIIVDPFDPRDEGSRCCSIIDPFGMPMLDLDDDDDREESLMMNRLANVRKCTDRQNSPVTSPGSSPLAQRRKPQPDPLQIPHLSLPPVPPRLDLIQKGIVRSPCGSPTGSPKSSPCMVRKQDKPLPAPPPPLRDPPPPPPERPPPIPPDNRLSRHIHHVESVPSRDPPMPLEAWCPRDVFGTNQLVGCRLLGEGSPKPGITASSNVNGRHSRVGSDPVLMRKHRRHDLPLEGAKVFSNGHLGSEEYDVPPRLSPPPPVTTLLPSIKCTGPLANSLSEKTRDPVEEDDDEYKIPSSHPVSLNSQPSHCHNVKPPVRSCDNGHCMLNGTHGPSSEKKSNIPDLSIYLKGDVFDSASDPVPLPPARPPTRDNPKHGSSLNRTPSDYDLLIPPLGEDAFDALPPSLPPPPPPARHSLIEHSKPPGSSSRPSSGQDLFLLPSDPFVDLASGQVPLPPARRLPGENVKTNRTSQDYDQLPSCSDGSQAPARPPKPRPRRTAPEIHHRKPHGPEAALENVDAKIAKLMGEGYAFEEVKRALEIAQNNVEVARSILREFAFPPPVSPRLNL

Turning to `Cn1cnnc1CC1(c2cccc(N3Cc4c(cc(CN5CCC(N6CC7(CN(c8ccc9c(c8)C(=O)N(C8CCC(=O)NC8=O)C9=O)C7)C6)CC5)cc4C(F)(F)F)C3=O)c2)COC1` (stereo not shown) [Example 106, 2-(2,6-dioxopiperidin-3-yl)-5-[6-(1-{[2-(3-{3-[(4-methyl-4H-1,2,4-triazol-3-yl)methyl]oxetan-3-yl}phenyl)-3-oxo-7-(trifluoromethyl)-2,3-dihydro-1H-isoindol-5-yl]methyl}piperidin-4-yl)-2,6-diazaspiro[3.3]heptan-2-yl]-2,3-dihydro-1H-isoindole-1,3-dione], on Cbl-b [1], the DC50 fell in the range of 50 to 500 nM and the Dmax is above 70%. On Cbl-b [2], the DC50 is above 500 nM.
As to `CC1CC(N2CCC(CC3CCN(c4ccc5c(c4)C(=O)N(C4CCC(=O)NC4=O)C5=O)CC3)CC2)CN(Cc2cc3c(c(C(F)(F)F)c2)CN(c2cccc(C4(Cc5nncn5C)COC4)c2)C3=O)C1` (stereo not shown) [Example 95, 2-(2,6-dioxopiperidin-3-yl)-5-{4-[(5′-methyl-1′-{[2-(3-{3-[(4-methyl-4H-1,2,4-triazol-3-yl)methyl]oxetan-3-yl}phenyl)-3-oxo-7-(trifluoromethyl)-2,3-dihydro-1H-isoindol-5-yl]methyl}-[1,3′-bipiperidin]-4-yl)methyl]piperidin-1-yl}-2,3-dihydro-1H-isoindole-1,3-dione], the DC50 is 50 to 500 nM at Cbl-b [1] and above 500 nM at Cbl-b [2].
On to `C[C@H]1C[C@@H](CN2CCN(c3cccc4c3C(=O)N(C3CCC(=O)NC3=O)C4=O)CC2)CN(Cc2cc3c(c(C(F)(F)F)c2)CN(c2cccc(C4(Cc5nncn5C)COC4)c2)C3=O)C1` (stereo partly drawn) [Example 90, 2-(2,6-dioxopiperidin-3-yl)-4-(4-{[(3R,5S)-5-methyl-1-{[2-(3-{3-[(4-methyl-4H-1,2,4-triazol-3-yl)methyl]oxetan-3-yl}phenyl)-3-oxo-7-(trifluoromethyl)-2,3-dihydro-1H-isoindol-5-yl]methyl}piperidin-3-yl]methyl}piperazin-1-yl)-2,3-dihydro-1H-isoindole-1,3-dione], for which, on Cbl-b [1], the DC50 was above 500 nM and the Dmax was below 35%. The DC50 on Cbl-b [2] was above 500 nM.
For `CC(C)n1c(=O)n(C2CCC(=O)NC2=O)c2cccc(N3CCC(O[C@H]4CC[C@H](CN5CCN(Cc6cc7c(c(C(F)(F)F)c6)CN(c6cccc([C@]8(Cc9nncn9C)C[C@@H](C#N)C8)c6)C7=O)C6(COC6)C5)CC4)CC3)c21` (stereo partly shown) [Example 322, (1r,3r)-3-[(4-methyl-4H-1,2,4-triazol-3-yl)methyl]-3-(3-{1-oxo-6-[(8-{[(1r,4r)-4-({1-[1-(2,6-dioxopiperidin-3-yl)-2-oxo-3-(propan-2-yl)-2,3-dihydro-1H-1,3-benzodiazol-4-yl]piperidin-4-yl}oxy)cyclohexyl]methyl}-2-oxa-5,8-diazaspiro[3.5]nonan-5-yl)methyl]-4-(trifluoromethyl)-2,3-dihydro-1H-isoindol-2-yl}phenyl)cyclobutane-1-carbonitrile], on Cbl-b [1], the DC50 fell in the range of 50 to 500 nM and the Dmax is above 70%. The DC50 on Cbl-b [2] was 5 to 50 nM. In addition, the “Cbl-b Degredation Method B Dmax (%)” value on Cbl-b [2] (maximum degradation observed) is “C (C ≤ 35)”.
On to `Cn1cnnc1CC1(c2cccc(N3Cc4c(cc(CN5CCC[C@H](CN6CCN(C[C@H]7CC[C@@H](OC8CCN(c9ccc%10c(c9F)CN(C9CCC(=O)NC9=O)C%10=O)CC8)CC7)CC6)C5)cc4C(F)(F)F)C3=O)c2)CC1` (stereo partly drawn) [Example 162, 3-[4-fluoro-1-oxo-5-(4-{[(1r,4r)-4-[(4-{[(3S)-1-{[2-(3-{1-[(4-methyl-4H-1,2,4-triazol-3-yl)methyl]cyclopropyl}phenyl)-3-oxo-7-(trifluoromethyl)-2,3-dihydro-1H-isoindol-5-yl]methyl}piperidin-3-yl]methyl}piperazin-1-yl)methyl]cyclohexyl]oxy}piperidin-1-yl)-2,3-dihydro-1H-isoindol-2-yl]piperidine-2,6-dione], for which the DC50 at Cbl-b [1] and on Cbl-b [2] was below 5 nM throughout. The Dmax at Cbl-b [1] is above 70%; at Cbl-b [2] (maximum degradation observed, read-out: Cbl-b Degredation Method B Dmax (%)), above 70%.
